Source: patent US20220125841A1, “SODIUM F[…] A REVERSAL AGENT FOR AN ANTI-F[…] T CELLS AND FLUORESCEIN-PHOSPHOLIPID-ETHERS OR PROFLUORESCEIN-PHOSPHOLIPID-ETHERS” (Seattle Children's Hospital (dba Seattle Children'a …, priority 2019, published 2022)

Tests used:
[1] = tested on: antiFL(FITC-E2) CAR T cells; assay: Chromium release assay and cytokine release assay, antiFL(FITC-E2) CAR T cells with FL-PLE-loaded K562 target cells; format: cell-based; conditions: 50 μM NaFL; K562 target cells with 5 μM FL-PLE
Method: FIG. 1B depicts a chromium release assay for effector T cells (CD8+ Mock or CD8+ antiFL(FITC-E2) CAR(Lg) T cells) mixed at various ratios with target cells (effector:target, E:T). The target cells are K562 control, K562 OKT3+, and K562 with 5 μM FL-PLE. One CD8+ antiFL(FITC-E2) population was exposed to 50 μM NaFL.
FIG. 1C depicts a cytokine release assay for helper cells (CD4+ Mock or CD4+ antiFL(FITC-E2) CAR(Lg) T cells) and effector T cells (CD8+ Mock or CD8+ antiFL(FITC-E2) CAR(Lg) T cells) mixed with target cells. The target cells are K562 control, K562 OKT3+, and K562 with 5 μM FL-PLE. One CD4+ and CD8+ antiFL(FITC-E2) population was exposed to 50 μM NaFL.
K562 (leukemia) cells were incubated with FL-PLE overnight. Cell integration of FL-PLE was analyzed by flow cytometry (FIG. 1A). There was a clear shift from the control K562 parental with the K562 parental incubated with 5 μM FL-PLE. This slight shift corresponded to a difference in the amount of FL exposed on the surface of the cell for CAR T cell recognition. These cells were used in a chromium release assay (FIG. 1B) and a cytokine release assay (FIG. 1C) to test whether the activation of CD8+ and CD4+ antiFL(FITC-E2) CAR T cells through FL-PLE integrated into K562 cells could be stopped in the presence of sodium fluorescein (NaFL). […]

[2] = tested on: antiFL(FITC-E2) CAR T cells; assay: MDA-MB-231 xenograft mouse model: monitoring of cytokine release syndrome (CRS) and cytotoxicity; format: in vivo, mice
Description: FIG. 2B depicts levels of cytokine release syndrome (CRS) and cytotoxicity in an MDA-MB-231 adenocarcinoma tumor xenograft mouse model over time. FIG. 2B (lower panel) is an enlargement of an area of FIG. 2B (upper panel).
After an adenocarcinoma (MDA-MB-231) tumor was established in 2 groups of mice by subcutaneous injection (2 tumors per mouse in opposite flanks), the mice received an intravenous injection of antiFL(FITC-E2) CART cells on day 6. The control group (no drug) only received the antiFL(FITC-E2) CAR T cells and the tumor progressed as normal. […] The mice were monitored for cytokine release syndrome (CRS) and cytotoxicity on a scale ranging from 1 (healthy) to 5 (dead) (FIG. 2B). On day 17, the intratumoral dose of FL-PLE was increased to 2 μg per tumor. On day 18, the mice had levels of CRS/toxicity between 3 and 4 at which point they received a dose of 0.56 mg of NaFL via an intravenous injection. […] After this, all doses of FL-PLE were administered at 1 μg per tumor.

antiFL(Mut2) CAR T cells [3] = assay: Cytokine release assay with dose titration of NaFL (Example 3); format: cell-based
Method: FIG. 3D depicts a cytokine release assay measuring IL-2 using the effector cells generated in FIG. 3A-B, target cells tested in FIG. 3C, and a dose titration of NaFL (0, 1, 5, or 10 μM).
FIG. 3E depicts a cytokine release assay measuring IFN-γ using the effector cells generated in FIG. 3A-B, target cells tested in FIG. 3C, and a dose titration of NaFL (0, 1, 5, or 10 μM).
FIG. 3F depicts a cytokine release assay measuring TNF-α using the effector cells generated in FIG. 3A-B, target cells tested in FIG. 3C, and a dose titration of NaFL (0, 1, 5, or 10 μM).
CD4+ and CD8+ T cells from peripheral blood mononuclear cell preparations from two donors were lentivirally transduced to express long CAR cassettes comprising the antiFL(Mut2) CAR. The CAR cassette also contains the gene for a double mutant dihydrofolate reductase that allows for methotrexate positive selection to enrich for transduced CAR-expressing cells as well as the gene for the truncated CD19 (CD19t) surface marker that denotes CAR positivity. The selected cells are then subjected to a standard rapid expansion protocol using irradiated TM-LCL and PBMC feeder cells. After 14 days of expansion, cells were stained with anti-CD4, anti-CD8, and anti-CD19 antibodies as well as a live-dead stain to characterize surface phenotypes by flow cytometry. Flow plots for the CD4 and CD8 populations (FIG. 3A) and CAR positivity (FIG. 3B) are shown for mock and antiFL(Mut2) CAR T cells for both donors. These are the effector cells to be used in subsequent experiments.
A cytokine release assay was set up to examine how a dose titration of NaFL (0, 1, 5, and 10 μM) affects the activation of antiFL CAR T cells. The CAR T cells are the antiFL(Mut2) CAR T cells generated in this example. Target cells were incubated with FL-PLE/NaFL for 24 hours or overnight. The media supernatant from target cell cultures were harvested and constituent cytokines were measured (e.g. with a Bio-Plex Human Cytokine Screening Panel). The cytokines IL-2 (FIG. 3D), IFN-γ (FIG. 3E), and TNF-α (FIG. 3F) were measured.

antiFL(Mut2) CAR T cells [4] = assay: In vivo intravenous use of NaFL to reverse cytokine toxicity by antiFL CAR T cells (Example 4); set-up: species or system mice
Method: Group A—control (5 mice): MDA-MB-231 tumor+antiFL(Mut2) CAR T cells.
Group B—FL-PLE without NaFL (5 mice): MDA-MB-231 tumor+antiFL(Mut2) CAR T cells+1 mg IV FL-PLE.
Group C—FL-PLE and NaFL (5 mice): MDA-MB-231 tumor+antiFL(Mut2) CAR T cells+1 mg IV FL-PLE+0.5 mg IV NaFL (as needed).
Group D—No tumor control (3 mice): antiFL(Mut2) CAR T cells+1 mg IV FL-PLE+0.5 mg IV NaFL (as needed).
Mice receiving FL-PLE (Groups B, C, and D) were administered FL-PLE IV first. AntiFL(Mut2) CAR T cells were subsequently administered in all mice 2 days following FL-PLE administration. […] Reduction of cytokine toxicity symptoms in mice of Groups C and D was observed within 15 minutes after administration of NaFL.

O=C([O-])c1ccccc1-c1c2ccc(=O)cc-2oc2cc([O-])ccc12.[Na+].[Na+] [NaFL, sodium fluorescein]
Effect of NaFL on recognition and activation of antiFL(FITC-E2) CAR T cells [1]: able to stop the recognition and activation | Time for cytotoxicity level to return to roughly baseline levels after NaFL ([2]; 0.56 mg NaFL intravenous injection on day 18): ≤ 12 h | Cytotoxicity level after NaFL ([2]; 0.56 mg NaFL intravenous injection on day 18 at CRS/toxicity level 3 to 4): Within minutes, the cytotoxicity level had dropped | Amount of activation of antiFL(Mut2) CAR T cells (IL-2, IFN-γ, TNF-α) versus amount of NaFL (antiFL(Mut2) CAR T cells [3]; NaFL 0, 1, 5, and 10 μM, all three cytokines, both donor T cells): decreased by the amount of NaFL present in the solution in a linear fashion | Effect of NaFL on IL-2 release by antiFL(Mut2) CAR T cells (antiFL(Mut2) CAR T cells [3]; NaFL 0, 1, 5, or 10 μM, FIG. 3D): dose dependent | Effect of NaFL on IFN-γ release by antiFL(Mut2) CAR T cells (antiFL(Mut2) CAR T cells [3]; NaFL 0, 1, 5, or 10 μM, FIG. 3E): dose dependent | Effect of NaFL on TNF-α release by antiFL(Mut2) CAR T cells (antiFL(Mut2) CAR T cells [3]; NaFL 0, 1, 5, or 10 μM, FIG. 3F): dose dependent | Tolerability in vivo (antiFL(Mut2) CAR T cells [4]; 0.5 mg IV NaFL, mice): well tolerated | Time to reduction of cytokine toxicity symptoms after administration of NaFL (antiFL(Mut2) CAR T cells [4]; Groups C and D, 0.5 mg IV NaFL): ≤ 15 min | Cytokine levels after NaFL (antiFL(Mut2) CAR T cells [4]; Groups C and D, 2 days following first administration of NaFL, optionally with additional IV injections): comparable to baseline
